For one test, the target named is T1, human TLR8 (Homo sapiens, UniProt Q9NR97).
T1 construct: host or cells: HEK-Blue cells
T1 sequence (Q9NR97 27-1041): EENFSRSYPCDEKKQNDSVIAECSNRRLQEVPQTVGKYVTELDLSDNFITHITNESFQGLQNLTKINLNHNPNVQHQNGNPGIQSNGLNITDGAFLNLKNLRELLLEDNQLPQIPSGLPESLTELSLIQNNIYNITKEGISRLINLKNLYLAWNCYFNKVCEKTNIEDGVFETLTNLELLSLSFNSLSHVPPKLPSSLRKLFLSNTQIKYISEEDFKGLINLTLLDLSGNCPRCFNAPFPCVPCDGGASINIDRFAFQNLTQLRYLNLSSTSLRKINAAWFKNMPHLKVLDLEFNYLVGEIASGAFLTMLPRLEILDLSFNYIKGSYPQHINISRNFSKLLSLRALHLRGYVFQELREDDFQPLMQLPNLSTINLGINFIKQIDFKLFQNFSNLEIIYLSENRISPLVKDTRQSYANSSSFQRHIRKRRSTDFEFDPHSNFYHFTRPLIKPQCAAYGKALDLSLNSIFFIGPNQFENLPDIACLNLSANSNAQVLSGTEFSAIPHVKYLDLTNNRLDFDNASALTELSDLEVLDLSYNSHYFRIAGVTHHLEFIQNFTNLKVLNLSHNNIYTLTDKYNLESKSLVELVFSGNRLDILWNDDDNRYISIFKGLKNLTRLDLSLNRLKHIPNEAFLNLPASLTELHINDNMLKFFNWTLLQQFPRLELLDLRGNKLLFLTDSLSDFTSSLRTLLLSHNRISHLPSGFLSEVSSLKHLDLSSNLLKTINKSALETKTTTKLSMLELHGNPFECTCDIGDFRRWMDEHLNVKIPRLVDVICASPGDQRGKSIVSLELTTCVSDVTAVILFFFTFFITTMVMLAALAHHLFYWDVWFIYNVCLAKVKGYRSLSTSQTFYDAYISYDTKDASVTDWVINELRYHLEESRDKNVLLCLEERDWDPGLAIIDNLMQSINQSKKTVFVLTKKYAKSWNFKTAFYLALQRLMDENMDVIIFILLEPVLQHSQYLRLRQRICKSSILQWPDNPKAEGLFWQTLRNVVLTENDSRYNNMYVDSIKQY
The experiment in a line: TLR8 inhibition reporter assay (HEK-Blue cells, SEAP reporter, R848 stimulation). The conditions noted are these: HEK-Blue cells overexpressing human TLR8, R848 15.9 μM. It is filed as cell-based. A digest of the protocol:
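Cells (15000/well for TLR7, 20,000 for TLR8) were treated with compounds over 0.05 nM-50 μM final. After 22 h at 37° C, 5% CO2, SEAP was measured with HEK-Blue Detection reagent; percent inhibition was taken as reduction of agonist-plus-DMSO signal relative to a known inhibitor.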

For another test, the target named is T2, human TLR9 (Homo sapiens, UniProt Q9NR96).
T2 construct: host or cells: HEK-Blue cells
T2 sequence (Q9NR96 26-1032): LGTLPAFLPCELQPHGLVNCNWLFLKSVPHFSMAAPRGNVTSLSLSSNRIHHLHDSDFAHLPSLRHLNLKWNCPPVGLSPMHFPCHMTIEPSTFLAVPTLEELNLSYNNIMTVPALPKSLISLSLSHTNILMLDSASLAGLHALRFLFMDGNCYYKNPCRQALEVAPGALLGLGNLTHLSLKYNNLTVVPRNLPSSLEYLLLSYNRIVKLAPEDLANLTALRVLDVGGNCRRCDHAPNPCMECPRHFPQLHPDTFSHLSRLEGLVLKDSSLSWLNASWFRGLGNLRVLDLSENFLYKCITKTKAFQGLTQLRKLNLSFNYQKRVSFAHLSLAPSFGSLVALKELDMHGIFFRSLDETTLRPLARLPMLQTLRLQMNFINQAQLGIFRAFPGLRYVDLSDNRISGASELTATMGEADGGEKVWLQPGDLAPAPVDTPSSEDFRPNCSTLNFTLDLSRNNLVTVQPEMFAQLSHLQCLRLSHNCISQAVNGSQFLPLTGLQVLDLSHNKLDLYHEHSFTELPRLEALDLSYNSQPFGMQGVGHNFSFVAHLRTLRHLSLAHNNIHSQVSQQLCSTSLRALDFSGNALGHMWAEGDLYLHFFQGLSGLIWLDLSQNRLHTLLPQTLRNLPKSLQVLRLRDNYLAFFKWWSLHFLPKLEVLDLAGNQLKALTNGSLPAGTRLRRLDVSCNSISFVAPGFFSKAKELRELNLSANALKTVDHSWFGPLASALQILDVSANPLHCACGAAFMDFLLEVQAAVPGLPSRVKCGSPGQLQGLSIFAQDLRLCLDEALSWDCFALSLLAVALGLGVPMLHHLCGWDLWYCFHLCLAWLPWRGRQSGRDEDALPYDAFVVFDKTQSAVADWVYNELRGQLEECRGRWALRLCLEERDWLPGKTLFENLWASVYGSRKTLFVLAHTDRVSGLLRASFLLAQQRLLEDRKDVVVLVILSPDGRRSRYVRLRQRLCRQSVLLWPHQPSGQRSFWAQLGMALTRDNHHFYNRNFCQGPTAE
In words: TLR9 inhibition reporter assay (HEK-Blue cells, SEAP reporter, ODN2006 stimulation). The note with it: HEK-Blue cells overexpressing human TLR9, ODN2006 5 nM. It is filed as cell-based. An outline of the steps: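 Human TLR7/8/9 HEK-Blue reporter lines; dose range 0.05 nM–50 μM; 30 min RT preincubation; stimulus gardiquimod 7.5 μM / R848 15.9 μM / ODN2006 5 nM respectively; 22 h, 37 °C; SEAP detected colorimetrically.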
In general terms: In a reporter assay the amount or activity of a reporter protein is the signal.

The source of these data is US11180474B2 (BRISTOL-MYERS SQUIBB COMPANY, priority 2016, dated 2021).

The structures appear in SMILES notation. pIC50: −log10 of the molar value. Bounds are passed on as bounds.

For the compound `CCN(CC)C(=O)C1CCCN(CC(=O)N2CCC(c3ccc4[nH]c(-c5ccc(OC)c(OC)c5)c(C(C)C)c4c3)CC2)C1` (stereo not drawn) [Example 248, 1-(2-(4-(2-(3,4-dimethoxyphenyl)-3-isopropyl-1H-indol-5-yl)piperidin-1-yl)-2-oxoethyl)-N,N-diethylpiperidine-3-carboxamide], the pIC50 (commonly −log10 of the IC50, conventionally taken in molar units) at human TLR8 is 7.66; against human TLR9, 6.79.
Regarding `COc1ccc(-c2[nH]c3ccc(C4CCN(C(=O)CN5CCC(CO)CC5)CC4)cc3c2C(C)C)cc1OC` [Example 243, 1-(4-(2-(3,4-dimethoxyphenyl)-3-isopropyl-1H-indol-5-yl)piperidin-1-yl)-2-(4-(hydroxymethyl)piperidin-1-yl)ethan-1-one], the results for the pIC50 against human TLR8 and against human TLR9 were 7.80 and 5.82, respectively.
For `COc1ccc(-c2[nH]c3ccc(C4CCN(C(=O)CN5CCC[C@@H](C(=O)N6CCCC6)C5)CC4)cc3c2C(C)C)cc1OC` [Example 303, (R)-1-(4-(2-(3,4-dimethoxyphenyl)-3-isopropyl-1H-indol-5-yl)piperidin-1-yl)-2-(3-(pyrrolidine-1-carbonyl)piperidin-1-yl)ethan-1-one], the pIC50 was 7.51 against human TLR8 and 5.75 on human TLR9.
As to `COc1ccc(-c2[nH]c3ccc(C4CCN(C(=O)CN5CCOCC5)CC4)cc3c2C(C)C)cc1OC` [Example 223, 1-(4-(2-(3,4-dimethoxyphenyl)-3-isopropyl-1H-indol-5-yl)piperidin-1-yl)-2-morpholinoethan-1-one], the figures for the negative-log IC50 (pIC50) against human TLR8 and at human TLR9 were 7.01 and at most 4.30, respectively.
Turning to `COc1ccc(-c2[nH]c3ccc(C4CCN(C(=O)CN(C)CCO)CC4)cc3c2C(C)C)cc1OC` [Example 242, 1-(4-(2-(3,4-dimethoxyphenyl)-3-isopropyl-1H-indol-5-yl)piperidin-1-yl)-2-((2-hydroxyethyl)(methyl)amino)ethan-1-one], the figures for the pIC50 on human TLR8 and on human TLR9 were 7.85 and 6.01, respectively.
As to `COc1ccc(-c2[nH]c3ccc(C4CCN(C(=O)CN5CCC[C@@H](C(=O)N6C(C)CCC6C)C5)CC4)cc3c2C(C)C)cc1OC` (stereo partly drawn) [Example 311, 1-(4-(2-(3,4-dimethoxyphenyl)-3-isopropyl-1H-indol-5-yl)piperidin-1-yl)-2-((3R)-3-(2,5-dimethylpyrrolidine-1-carbonyl)piperidin-1-yl)ethan-1-one], the pIC50 was 7.22 against human TLR8 and 5.61 at human TLR9.
On to `COc1ccc(-c2[nH]c3ccc(C4CCN(C(=O)CN5CCC[C@H](C(=O)N6CCN(Cc7ccc(Br)cc7)CC6)C5)CC4)cc3c2C(C)C)cc1OC` [Example 294, (S)-2-(3-(4-(4-bromobenzyl)piperazine-1-carbonyl)piperidin-1-yl)-1-(4-(2-(3,4-dimethoxyphenyl)-3-isopropyl-1H-indol-5-yl)piperidin-1-yl)ethan-1-one], for which the pIC50 is 6.26 at human TLR8 and 5.65 on human TLR9.
As to `COc1ccc(-c2[nH]c3ccc(C4CCN(C(=O)CN5CCCC(C(=O)NC6CCN(C(C)C)CC6)C5)CC4)cc3c2C(C)C)cc1OC` (single isomer, unassigned) [Example 281, 1-(2-(4-(2-(3,4-dimethoxyphenyl)-3-isopropyl-1H-indol-5-yl)piperidin-1-yl)-2-oxoethyl)-N-(1-isopropylpiperidin-4-yl)piperidine-3-carboxamide], the pIC50 at human TLR8 is 7.70; at human TLR9 it was 6.23.
Take `COc1ccc(-c2[nH]c3ccc(C4CCN(C(=O)CN5CCC[C@H](C(=O)N6CCN(C(C)C)CC6)C5)CC4)cc3c2C(C)C)cc1OC` [Example 286, (S)-1-(4-(2-(3,4-dimethoxyphenyl)-3-isopropyl-1H-indol-5-yl)piperidin-1-yl)-2-(3-(4-isopropylpiperazine-1-carbonyl)piperidin-1-yl)ethan-1-one]: the pIC50 at human TLR8 is 7.77; at human TLR9 it was 6.22.
On to `COc1ccc(-c2[nH]c3ccc(C4CCN(C(=O)CN5CCC[C@@H](C(=O)NCC(N)=O)C5)CC4)cc3c2C(C)C)cc1OC` [Example 309, (R)—N-(2-amino-2-oxoethyl)-1-(2-(4-(2-(3,4-dimethoxyphenyl)-3-isopropyl-1H-indol-5-yl)piperidin-1-yl)-2-oxoethyl)piperidine-3-carboxamide], for which the results for the negative logarithm of the IC50 (pIC50) on human TLR8 and against human TLR9 were 7.23 and 5.16, respectively.
Take `COc1ccc(-c2[nH]c3ccc(C4CCN(C(=O)CN5CCC(N(C)C)CC5)CC4)cc3c2C(C)C)cc1OC` [Example 244, 1-(4-(2-(3,4-dimethoxyphenyl)-3-isopropyl-1H-indol-5-yl)piperidin-1-yl)-2-(4-(dimethylamino)piperidin-1-yl)ethan-1-one]: the negative-log IC50 (pIC50) on human TLR8 was 7.80; against human TLR9 it was 6.42.
For `COc1ccc(-c2[nH]c3ccc(C4CCN(C(=O)CN5CCC[C@H](C(=O)N6CC[C@H](O)C6)C5)CC4)cc3c2C(C)C)cc1OC` [Example 301, 1-(4-(2-(3,4-dimethoxyphenyl)-3-isopropyl-1H-indol-5-yl)piperidin-1-yl)-2-((S)-3-((S)-3-hydroxypyrrolidine-1-carbonyl)piperidin-1-yl)ethan-1-one], the negative-log IC50 (pIC50) against human TLR8 is 7.72; at human TLR9 it was 5.51.
Regarding `COc1ccc(-c2[nH]c3ccc(C4CCN(C(=O)CN5CCC[C@H](C(=O)N6CCN(CCN7CCCC7)CC6)C5)CC4)cc3c2C(C)C)cc1OC` [Example 293, (S)-1-(4-(2-(3,4-dimethoxyphenyl)-3-isopropyl-1H-indol-5-yl)piperidin-1-yl)-2-(3-(4-(2-(pyrrolidin-1-yl)ethyl)piperazine-1-carbonyl)piperidin-1-yl)ethan-1-one], the negative-log IC50 (pIC50) against human TLR8 is 7.48; against human TLR9 it was 6.11.
As to `CCN(CC)C(=O)C1CCCN(CC(=O)N2CCC(c3ccc4[nH]c(-c5ccc(OC)c(OC)c5)c(C(C)C)c4c3)CC2)C1` (stereo not drawn) [Example 247, 1-(2-(4-(2-(3,4-dimethoxyphenyl)-3-isopropyl-1H-indol-5-yl)piperidin-1-yl)-2-oxoethyl)-N,N-diethylpiperidine-3-carboxamide], the pIC50 is 7.42 against human TLR8 and 5.38 on human TLR9.
In the same order, the values of `COc1ccc(-c2[nH]c3ccc(C4CCN(C(=O)CN5CCC[C@H](C(=O)N6CCC(N(C)C)CC6)C5)CC4)cc3c2C(C)C)cc1OC` [Example 289, (S)-1-(4-(2-(3,4-dimethoxyphenyl)-3-isopropyl-1H-indol-5-yl)piperidin-1-yl)-2-(3-(4-(dimethylamino)piperidine-1-carbonyl)piperidin-1-yl)ethan-1-one] are 7.85 and 6.30.
